Assay [1] relates to Vero cells. The format is cell-based.
In assay [2] the test system is Vero cells. The format is cell-based. The source holds these as a separate data set.

Turning to chlorin e6 [free Ce6], the “LD50 of photodynamic cell killing, expressed in molar concentration of Ce6” value in the assay with Vero cells [1] turned out to be 1.2 nmol/mL. In the assay on Vero cells [2], the “Cell-associated Ce6-specific fluorescence” value was “no detectable Ce6-specific fluorescence”.

For the origin of these results see patent publication US20020086814A1 (priority 2000, published 2002).
